Measured values taken from PubChem BioAssay (NCI).
Values joined by “and” are separate entries in the source; they are usually repeats but may differ in a detail not shown here. Identical values can stand only once.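 Cells were grown in 96-well plates and exposed to each compound for 48 hours at five concentrations; endpoints were interpolated linearly between bracketing concentrations, or set to the highest concentration if not reached. Here, GI50 denotes the concentration required for 50% inhibition of growth. Definition used: TGI = concentration required for complete inhibition of growth.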

How the values were obtained:
Test in all cases: NCI anticancer screen, dose series, 48 h
ACHN renal = tested on: ACHN renal
DU-145 prostate = tested on: DU-145 prostate
MALME-3M melanoma = tested on: MALME-3M melanoma
MDA-N = tested on: MDA-N
NCI-H23 lung = tested on: NCI-H23 lung
OVCAR-3 ovarian = tested on: OVCAR-3 ovarian
OVCAR-4 ovarian = tested on: OVCAR-4 ovarian
SF-539 CNS = tested on: SF-539 CNS
SK-MEL-28 melanoma = tested on: SK-MEL-28 melanoma
UO-31 renal = tested on: UO-31 renal

SMILES	TGI (ACHN renal) [µM]	TGI (DU-145 prostate)	TGI (MALME-3M melanoma) [µM]	TGI (MDA-N) [µM]	TGI (NCI-H23 lung) [µM]	TGI (OVCAR-3 ovarian)	TGI (OVCAR-4 ovarian) [µM]	TGI (SF-539 CNS)	TGI (SK-MEL-28 melanoma)	TGI (UO-31 renal)	GI50 (DU-145 prostate) [µM]	GI50 (MALME-3M melanoma) [µM]	GI50 (NCI-H23 lung) [µM]	GI50 (OVCAR-4 ovarian) [µM]	GI50 (SF-539 CNS) [µM]	GI50 (SK-MEL-28 melanoma) [µM]	GI50 (UO-31 renal) [µM]
Cc1cc2ccccc2oc(=O)/c1=N\Nc1ccccc1	> 100	> 100 µM	> 100	> 100	> 100	> 100 µM	> 100	> 100 µM	> 100 µM	> 100 µM							
CC(C)(C)OC(=O)NCC(c1c[nH]c2ccccc12)c1c[nH]c2ccccc12	> 100	29 µM	33.2	35.3	36.4	30.6 µM	26.5	35.4 µM	35.3 µM	27.4 µM							
O=C(Oc1cncc(Cl)c1)c1cc2ccccc2sc1=O	> 100	> 100 µM	> 100	> 100	> 100	> 100 µM	> 100	57.9 µM	> 100 µM	> 100 µM							
O=C(O)c1c(CC(Cc2ccccc2)C(=O)O)ccc2c1CCC2 (stereo not given)	> 100	> 100 µM	> 100	> 100	> 100	> 100 µM	> 100	> 100 µM	> 100 µM	> 100 µM							
CC1(C)Cc2ccccc2C(C)(Cl)C(=O)N1 (stereo not given)	> 10	> 10 µM	> 10	> 10	> 10	> 10 µM	> 10	> 10 µM	> 10 µM	> 10 µM							
C[C@H](NC(=O)C(C)(Cc1ccc(O)cn1)NC(=O)c1ccccc1)c1ccccc1 (stereo not given in full)	> 100	> 100 µM	> 100	> 100	> 100	> 100 µM	> 100	> 100 µM	> 100 µM	> 100 µM							
CCOC(=O)c1cnc2n(c1=O)[C@H]1CCCC[C@@H]1N2	> 100	> 100 µM	> 100	> 100	> 100	> 100 µM	> 100	> 100 µM	> 100 µM	> 100 µM							
C[C@@H]1C[C@@H]2OC(=O)[C@]3(C)[C@H]2[C@@H](OC3(C)O)[C@]2(C)C(=O)C=C[C@@H]12 (stereo not given in full)	45	> 100 µM	30.7	35.5	70	44.3 µM	35.9	> 100 µM	45 µM	> 100 µM							
Clc1cc(Cl)nc(Nc2ccc3c(c2)CCC3)n1	> 100	> 100 µM	93.3	> 100	> 100	> 100 µM	> 100	> 100 µM	> 100 µM	> 100 µM							
CC(C)=CC(=O)OC1C2C(C)=CC(=O)C(O)C2(C)C2C3(O)OCC24C(CC(=O)OC14)C(C)C3O (stereo not given)	0.443	0.0173 µM and 0.141 µM	0.0136	0.00481		0.0226 µM and 0.0354 µM		0.0132 µM and 0.0415 µM	0.0175 µM and 0.0363 µM	0.545 µM and 4.78 µM and 1.03 µM	0.0225	0.00475	0.02	0.02	0.02	0.02	0.829
